Laboratory results published in ChEMBL document CHEMBL1201862, “PubChem BioAssay data set” (2004).
The source made the active and inactive calls.

Columns and labels:
[1] = target: T1, Sentrin-specific protease 7 (Homo sapiens, UniProt Q9BQF6); format: functional;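 also: Luminescence-based dose-response confirmation of ultra-high-throughput screening hits, measuring inhibition of SENP7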
T1 sequence (Q9BQF6 whole entry): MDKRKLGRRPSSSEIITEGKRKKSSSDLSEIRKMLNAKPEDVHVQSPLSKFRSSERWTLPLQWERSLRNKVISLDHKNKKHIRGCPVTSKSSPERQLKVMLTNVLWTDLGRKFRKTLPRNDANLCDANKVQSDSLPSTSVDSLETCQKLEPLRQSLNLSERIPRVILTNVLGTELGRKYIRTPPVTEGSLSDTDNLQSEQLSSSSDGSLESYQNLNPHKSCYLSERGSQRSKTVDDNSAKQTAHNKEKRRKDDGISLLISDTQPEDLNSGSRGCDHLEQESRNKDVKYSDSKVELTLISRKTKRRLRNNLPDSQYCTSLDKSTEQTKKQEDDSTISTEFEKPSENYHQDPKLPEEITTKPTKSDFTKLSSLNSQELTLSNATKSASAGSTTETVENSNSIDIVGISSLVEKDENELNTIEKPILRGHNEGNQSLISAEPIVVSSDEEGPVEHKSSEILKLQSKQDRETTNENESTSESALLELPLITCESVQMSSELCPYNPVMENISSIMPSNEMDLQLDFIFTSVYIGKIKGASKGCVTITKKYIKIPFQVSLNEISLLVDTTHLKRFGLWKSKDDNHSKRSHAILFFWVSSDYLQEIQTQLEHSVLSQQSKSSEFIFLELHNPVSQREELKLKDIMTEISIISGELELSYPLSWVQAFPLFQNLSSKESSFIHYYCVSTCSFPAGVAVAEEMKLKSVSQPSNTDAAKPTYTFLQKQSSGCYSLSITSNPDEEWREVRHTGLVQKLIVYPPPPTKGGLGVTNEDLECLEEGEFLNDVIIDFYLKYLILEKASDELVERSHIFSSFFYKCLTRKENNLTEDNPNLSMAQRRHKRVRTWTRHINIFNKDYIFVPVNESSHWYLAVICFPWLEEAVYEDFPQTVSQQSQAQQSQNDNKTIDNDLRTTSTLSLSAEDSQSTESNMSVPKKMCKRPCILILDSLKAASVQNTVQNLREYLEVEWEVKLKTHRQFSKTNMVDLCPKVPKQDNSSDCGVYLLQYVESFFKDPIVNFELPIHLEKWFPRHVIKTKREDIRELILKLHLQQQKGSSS

[2] = target: T2, Sentrin-specific protease 6 (Homo sapiens, UniProt Q9GZR1); format: functional;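 also: Luminescence-based dose-response confirmatory assay of SENP6 inhibition, following up an ultra-high-throughput screen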
T2 sequence (Q9GZR1 whole entry): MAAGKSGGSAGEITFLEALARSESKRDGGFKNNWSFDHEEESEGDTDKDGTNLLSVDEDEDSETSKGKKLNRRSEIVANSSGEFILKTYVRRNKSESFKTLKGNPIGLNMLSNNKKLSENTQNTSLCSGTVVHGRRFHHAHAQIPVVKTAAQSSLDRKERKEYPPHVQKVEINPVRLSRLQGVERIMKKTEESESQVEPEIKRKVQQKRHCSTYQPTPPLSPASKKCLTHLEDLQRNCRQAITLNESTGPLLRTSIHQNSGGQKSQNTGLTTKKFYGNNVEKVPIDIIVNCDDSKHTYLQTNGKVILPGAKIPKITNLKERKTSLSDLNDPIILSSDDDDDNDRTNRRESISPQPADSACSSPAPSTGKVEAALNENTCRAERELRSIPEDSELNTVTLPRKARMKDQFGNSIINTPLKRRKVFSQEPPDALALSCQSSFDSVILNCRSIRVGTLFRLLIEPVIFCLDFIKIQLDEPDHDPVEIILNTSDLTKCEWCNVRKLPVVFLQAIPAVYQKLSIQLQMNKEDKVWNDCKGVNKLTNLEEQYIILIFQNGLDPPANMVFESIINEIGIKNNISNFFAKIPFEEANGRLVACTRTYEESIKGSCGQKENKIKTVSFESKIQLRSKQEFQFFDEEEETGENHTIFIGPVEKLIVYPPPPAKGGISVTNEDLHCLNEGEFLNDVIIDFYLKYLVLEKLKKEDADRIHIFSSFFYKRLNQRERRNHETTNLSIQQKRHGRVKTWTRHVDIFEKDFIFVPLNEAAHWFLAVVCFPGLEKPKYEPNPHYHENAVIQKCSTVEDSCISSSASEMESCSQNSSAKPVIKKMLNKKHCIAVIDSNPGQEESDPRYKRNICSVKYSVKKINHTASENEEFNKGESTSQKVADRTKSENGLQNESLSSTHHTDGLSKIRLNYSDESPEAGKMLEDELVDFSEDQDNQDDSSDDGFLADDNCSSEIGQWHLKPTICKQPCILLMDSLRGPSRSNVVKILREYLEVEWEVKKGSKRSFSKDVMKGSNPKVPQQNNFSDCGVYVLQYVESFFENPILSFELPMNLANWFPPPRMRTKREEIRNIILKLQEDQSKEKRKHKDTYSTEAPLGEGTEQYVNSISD

[3] = target: T3, Sentrin-specific protease 8 (Homo sapiens, UniProt Q96LD8); format: functional
T3 sequence (Q96LD8 whole entry): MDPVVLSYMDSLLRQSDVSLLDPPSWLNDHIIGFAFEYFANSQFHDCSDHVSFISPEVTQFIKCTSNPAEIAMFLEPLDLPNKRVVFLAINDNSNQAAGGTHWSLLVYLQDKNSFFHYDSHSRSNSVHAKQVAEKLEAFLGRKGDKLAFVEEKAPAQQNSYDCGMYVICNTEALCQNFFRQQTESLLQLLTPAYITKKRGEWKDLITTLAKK

Caspase-3 = target: T4, Caspase-3 (Homo sapiens, UniProt P42574); format: functional;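 also: Dose-response selectivity test against caspase-3 for candidate inhibitors of sentrin-specific proteases (SENPs)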
T4 sequence (P42574 whole entry): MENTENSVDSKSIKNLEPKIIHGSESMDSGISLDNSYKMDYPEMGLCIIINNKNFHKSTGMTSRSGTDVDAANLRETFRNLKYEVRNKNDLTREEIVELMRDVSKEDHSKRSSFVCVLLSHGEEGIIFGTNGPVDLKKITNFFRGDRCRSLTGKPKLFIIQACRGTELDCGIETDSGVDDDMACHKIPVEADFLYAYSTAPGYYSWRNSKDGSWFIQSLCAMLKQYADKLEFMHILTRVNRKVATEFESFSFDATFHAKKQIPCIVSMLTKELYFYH

[4] = target: T3, Sentrin-specific protease 8; format: functional; remark: listed apart in the source
[5] = target: T3, Sentrin-specific protease 8; format: functional; remark: listed apart in the source
Caspase-6 = target: T5, Caspase-6 (Homo sapiens, UniProt P55212); test: inhibition of CASP6 peptide cleavage – biochemical, VEID-R110 fluorescence, cherry-pick, dose response (AID 720632)
T5 sequence (P55212 whole entry): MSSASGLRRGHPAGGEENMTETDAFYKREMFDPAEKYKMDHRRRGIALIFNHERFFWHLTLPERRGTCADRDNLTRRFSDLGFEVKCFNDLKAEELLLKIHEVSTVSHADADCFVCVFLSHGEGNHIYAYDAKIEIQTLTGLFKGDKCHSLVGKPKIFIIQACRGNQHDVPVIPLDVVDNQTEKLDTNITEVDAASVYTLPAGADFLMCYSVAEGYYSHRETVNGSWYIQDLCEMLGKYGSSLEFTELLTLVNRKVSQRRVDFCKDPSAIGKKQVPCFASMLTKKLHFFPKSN

[6] = target: T6, Methionyl-tRNA synthetase, putative (Trypanosoma brucei brucei, UniProt Q38C91); format: functional, Trypanosoma brucei brucei strain 927/4 GUTat10.1
T6 sequence (Q38C91 whole entry): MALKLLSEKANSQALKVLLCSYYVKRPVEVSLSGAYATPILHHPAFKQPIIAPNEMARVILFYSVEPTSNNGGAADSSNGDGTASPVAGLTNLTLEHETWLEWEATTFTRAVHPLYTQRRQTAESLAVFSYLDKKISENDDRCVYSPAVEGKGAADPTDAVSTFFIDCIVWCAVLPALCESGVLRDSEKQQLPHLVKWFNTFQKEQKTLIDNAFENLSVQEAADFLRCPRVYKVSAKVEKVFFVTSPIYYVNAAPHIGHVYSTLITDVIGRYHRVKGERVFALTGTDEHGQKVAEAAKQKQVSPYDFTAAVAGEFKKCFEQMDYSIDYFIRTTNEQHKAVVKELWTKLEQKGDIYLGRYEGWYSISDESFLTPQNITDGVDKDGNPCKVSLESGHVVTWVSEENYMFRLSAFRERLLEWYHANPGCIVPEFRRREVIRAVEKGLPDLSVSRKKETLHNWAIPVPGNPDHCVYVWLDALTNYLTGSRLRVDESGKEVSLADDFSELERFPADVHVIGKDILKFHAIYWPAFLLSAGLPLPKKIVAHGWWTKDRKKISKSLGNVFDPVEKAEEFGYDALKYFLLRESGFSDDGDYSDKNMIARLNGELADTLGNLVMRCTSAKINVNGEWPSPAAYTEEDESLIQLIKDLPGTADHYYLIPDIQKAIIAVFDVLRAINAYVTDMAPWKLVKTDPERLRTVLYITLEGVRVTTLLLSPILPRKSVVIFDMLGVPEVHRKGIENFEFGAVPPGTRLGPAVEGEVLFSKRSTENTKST

[7] = target: T6, Methionyl-tRNA synthetase, putative; format: functional, Trypanosoma brucei brucei strain 927/4 GUTat10.1; remark: listed apart in the source
[8] = Counterscreen for inhibitors of Trypanosoma brucei methionyl tRNA synthetase (MetRS): Luminescence-based cell-based high throughput dose response assay to identify compounds that are cytotoxic to Jurkat human T lymphocyte cells.; format: functional
[9] = Counterscreen for activators of the function of SWI/SNF related, matrix associated, actin dependent regulator of chromatin, subfamily a, member 2 (SMARCA2, BRM): Luminescence-based cell-based high throughput dose response assay to identify non-selective compounds using the VP16 reporter assay.; format: functional
[10] = target: SWI/SNF-related matrix-associated actin-dependent regulator of chromatin subfamily A member 2 (Homo sapiens, UniProt P51531); test: Luminescence-based cell-based high throughput dose response assay to identify activators of the function of SWI/SNF related, matrix associated, actin dependent regulator of chromatin, subfamily a, member 2 (SMARCA2, BRM).; format: functional
SWI/SNF-related matrix-associated actin-dependent regulator of chromatin subfamily A member 2, sequence (P51531 whole entry): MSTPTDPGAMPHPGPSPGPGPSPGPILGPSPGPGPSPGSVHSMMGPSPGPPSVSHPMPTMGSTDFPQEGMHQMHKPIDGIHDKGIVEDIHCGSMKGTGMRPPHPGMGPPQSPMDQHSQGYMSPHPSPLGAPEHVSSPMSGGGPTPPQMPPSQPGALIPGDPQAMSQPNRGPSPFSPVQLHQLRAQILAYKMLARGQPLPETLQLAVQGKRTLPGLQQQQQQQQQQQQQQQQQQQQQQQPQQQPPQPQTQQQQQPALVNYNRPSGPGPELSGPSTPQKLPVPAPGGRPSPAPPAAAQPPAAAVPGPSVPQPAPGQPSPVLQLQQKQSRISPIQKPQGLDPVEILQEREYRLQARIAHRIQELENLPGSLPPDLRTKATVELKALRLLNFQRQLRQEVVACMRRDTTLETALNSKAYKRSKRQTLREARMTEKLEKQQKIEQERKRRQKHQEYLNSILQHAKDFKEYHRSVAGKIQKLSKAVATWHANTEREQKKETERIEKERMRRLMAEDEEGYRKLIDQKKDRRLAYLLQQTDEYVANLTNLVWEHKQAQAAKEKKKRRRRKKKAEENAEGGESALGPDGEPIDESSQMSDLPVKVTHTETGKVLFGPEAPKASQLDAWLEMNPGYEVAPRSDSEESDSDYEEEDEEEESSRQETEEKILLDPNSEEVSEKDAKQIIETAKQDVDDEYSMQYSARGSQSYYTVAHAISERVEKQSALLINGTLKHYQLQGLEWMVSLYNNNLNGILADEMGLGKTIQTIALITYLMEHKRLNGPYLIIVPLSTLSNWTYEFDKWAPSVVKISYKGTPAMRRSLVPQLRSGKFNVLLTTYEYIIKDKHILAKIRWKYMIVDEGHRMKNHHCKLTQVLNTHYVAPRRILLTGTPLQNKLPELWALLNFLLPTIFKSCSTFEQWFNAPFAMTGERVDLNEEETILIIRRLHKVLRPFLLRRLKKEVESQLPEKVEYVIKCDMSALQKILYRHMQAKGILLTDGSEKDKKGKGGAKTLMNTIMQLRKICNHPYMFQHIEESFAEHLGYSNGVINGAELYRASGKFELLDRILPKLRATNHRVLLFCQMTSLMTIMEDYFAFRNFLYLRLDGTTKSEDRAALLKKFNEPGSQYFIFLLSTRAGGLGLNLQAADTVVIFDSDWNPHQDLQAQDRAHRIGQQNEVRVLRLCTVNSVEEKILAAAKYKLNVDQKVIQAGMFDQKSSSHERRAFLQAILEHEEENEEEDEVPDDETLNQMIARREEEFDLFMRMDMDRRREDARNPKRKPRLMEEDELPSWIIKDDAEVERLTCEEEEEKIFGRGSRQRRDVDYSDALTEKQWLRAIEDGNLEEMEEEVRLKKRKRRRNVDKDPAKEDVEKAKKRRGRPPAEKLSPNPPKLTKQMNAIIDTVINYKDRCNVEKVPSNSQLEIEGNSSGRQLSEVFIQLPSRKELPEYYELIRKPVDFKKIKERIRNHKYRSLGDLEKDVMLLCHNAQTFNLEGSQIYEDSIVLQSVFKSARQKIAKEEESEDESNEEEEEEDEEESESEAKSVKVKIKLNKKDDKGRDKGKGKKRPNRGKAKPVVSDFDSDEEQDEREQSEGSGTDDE

[11] = target: T7, Heat shock factor protein 1 (Mus musculus, UniProt P38532); test: enhancement of HSF1-driven luciferase signal – cell-based, NIH3T3, luminescence, dose retest, confirmation (AID 435004); format: functional;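 also: stress induced by proteasome inhibitor MG132 added 30 min after compound; luciferase reporter driven by HSF1 response element in NIH3T3 cells; actives raise luminescence as potentiators of the MG132 stress response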
T7 sequence (P38532 whole entry): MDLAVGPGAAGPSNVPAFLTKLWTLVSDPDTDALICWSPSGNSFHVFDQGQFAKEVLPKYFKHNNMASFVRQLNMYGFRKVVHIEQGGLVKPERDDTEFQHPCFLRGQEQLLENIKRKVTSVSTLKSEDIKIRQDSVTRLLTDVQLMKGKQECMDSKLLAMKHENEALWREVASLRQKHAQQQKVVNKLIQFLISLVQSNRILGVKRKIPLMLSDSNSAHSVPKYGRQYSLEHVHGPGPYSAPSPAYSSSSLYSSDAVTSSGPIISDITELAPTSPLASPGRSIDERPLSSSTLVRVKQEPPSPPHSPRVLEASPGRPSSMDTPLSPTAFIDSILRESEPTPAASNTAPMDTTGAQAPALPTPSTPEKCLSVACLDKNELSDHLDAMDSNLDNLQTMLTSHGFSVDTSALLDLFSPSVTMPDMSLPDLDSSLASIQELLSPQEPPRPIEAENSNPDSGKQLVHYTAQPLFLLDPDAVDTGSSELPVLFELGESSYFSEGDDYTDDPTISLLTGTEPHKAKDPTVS

[12] = Luminescence Cell-Based Dose Retest to Confirm Inhibitors of Cancer Stem Cells. [Related pubchem assays (depositor defined):AID2717, AID2721]; format: functional; conditions: Homo sapiens
[13] = viability loss in HEK293T cells – cell-based, cherry-picks, cytotoxicity control for HIV Vif inhibitor project, dose response (AID 652208); format: functional
Mu-type opioid receptor = Mu-type opioid receptor (Homo sapiens, UniProt P35372); format: functional, cell-based;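 also: U2OS cells with beta-arrestin recruitment to OPRM1 by beta-gal complementation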
Mu-type opioid receptor, sequence (P35372 whole entry): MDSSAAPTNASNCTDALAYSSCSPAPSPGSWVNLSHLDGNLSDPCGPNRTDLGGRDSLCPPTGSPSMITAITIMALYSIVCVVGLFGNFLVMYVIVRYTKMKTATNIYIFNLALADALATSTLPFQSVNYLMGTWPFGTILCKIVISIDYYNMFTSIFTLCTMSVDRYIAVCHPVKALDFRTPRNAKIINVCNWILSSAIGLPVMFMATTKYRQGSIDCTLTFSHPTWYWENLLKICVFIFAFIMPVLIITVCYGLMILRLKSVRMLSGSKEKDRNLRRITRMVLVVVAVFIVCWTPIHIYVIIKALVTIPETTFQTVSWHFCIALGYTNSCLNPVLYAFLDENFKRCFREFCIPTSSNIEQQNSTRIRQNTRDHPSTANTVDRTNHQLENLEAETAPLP

[14] = target: 5-hydroxytryptamine receptor 2A (Mus musculus, UniProt P35363); format: functional, cell-based;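 also: CHO-K1 cells with tagged receptor and beta-arrestin; agonist potency measured as compound-induced activation of the receptor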
5-hydroxytryptamine receptor 2A, sequence (P35363 whole entry): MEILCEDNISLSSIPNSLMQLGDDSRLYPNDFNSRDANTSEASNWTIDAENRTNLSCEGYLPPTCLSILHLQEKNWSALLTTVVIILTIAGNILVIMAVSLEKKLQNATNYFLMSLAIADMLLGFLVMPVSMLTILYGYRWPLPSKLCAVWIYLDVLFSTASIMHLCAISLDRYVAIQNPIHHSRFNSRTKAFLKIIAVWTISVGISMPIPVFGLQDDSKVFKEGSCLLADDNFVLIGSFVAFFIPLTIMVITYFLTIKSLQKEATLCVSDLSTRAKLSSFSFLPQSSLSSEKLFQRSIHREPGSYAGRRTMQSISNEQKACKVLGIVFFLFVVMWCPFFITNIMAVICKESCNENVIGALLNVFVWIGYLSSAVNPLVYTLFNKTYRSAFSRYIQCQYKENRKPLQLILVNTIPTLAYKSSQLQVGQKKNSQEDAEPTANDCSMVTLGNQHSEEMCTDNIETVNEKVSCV

[15] = cytotoxicity in HEK293 background cells – cell-based, dry powder, set 2, counter-screen for EBV LMP1 inhibitor project, dose response (AID 624374); format: functional

O=C1OC(Nc2cc(Br)cc3cccnc23)c2ccccc21 (stereo not given)
IC50 [1]: 1.79 µM (active) | IC50 [2]: < 1.55 µM (active) | IC50 [3]: 1.63 µM (active) | IC50 (Caspase-3): 2.67 µM (active) | IC50 [4]: > 100 µM (inactive) | IC50 [5]: 8.4 µM (active) | AC50 (Caspase-6): 11.1 µM (active)

Oc1nc(CSc2ncc(C(F)(F)F)cc2Cl)nc2ccccc12
IC50 [6]: 5.35 µM (active) | IC50 [7]: 14.4 µM (inactive) | IC50 [8]: 35.7 µM (inactive)

Brc1ccc2[nH]c3c(NCc4ccccn4)ncnc3c2c1
IC50 [6]: 3.47 µM (active) | IC50 [7]: 5.71 µM (active) | IC50 [8]: 83.3 µM (inactive)

N#CCn1cnc2sc(-c3ccccc3)cc2c1=O
EC50 [9]: > 91.2 µM (inactive) | EC50 [10]: > 91.2 µM (inactive)

CC(C)(C)CC(=O)O/N=C(\N)c1ccccn1
EC50 [9]: > 91.1 µM (inactive) | EC50 [10]: > 91.1 µM (inactive)

O=C(COC(=O)/C=C/C(=O)OCC(=O)Nc1ccccc1F)Nc1ccccc1F
EC50 [11]: 11.1 µM (active) | AC50 [12]: 7.02 µM (active) | AC50 [13]: 44.3 µM (active)

CCOc1ccc(CN2CCN(C(=O)c3ccco3)CC2)cc1
EC50 (Mu-type opioid receptor): 92.5 µM (inactive) | EC50 [14]: 0.965 µM (active)

CC12CCC(C(=O)N(CCCCN3CCN(c4ccccn4)CC3)C1=O)C2(C)C (stereo not given)
EC50 (Mu-type opioid receptor): 92.5 µM (inactive) | EC50 [14]: 0.0105 µM (active)

N#C[C@H]1[C@@H](c2ccc(-c3cccnc3)cc2)[C@@H](CO)N1C(=O)Nc1ccc(F)cc1
AbsAC35 [15]: 162.11 µM
